{"source": "patent US20090269795A1", "about": "“Mutant alpha4betadelta GABAA receptor and methods of treating anxiety or irritability” (priority 2007, published 2009)", "key": {"[1]": {"tested_on": "CA1 hippocampal pyramidal cells", "assay": "Tonic GABAergic current, whole cell patch clamp, hippocampal slice", "type": "cell-based, mouse", "protocol": "In whole cell recordings of the tonic current, the bath contained 2 mM kynurenic acid and 5-10 mM TEA to pharmacologically isolate the GABAergic current, and in some cases, 200 nM gabazine (6-imino-3-(4-methyoxyphenyl)-1 (6H)-pyridazinebutanoic acid hydrobromide) to selectively block the synaptic GABAergic currents^22. […] In some cases, 50 μM L-655,708 was added to the bath solution to block α5-containing GABAA receptors^23.\nTonic current was recorded as the difference current produced by 120 μM gabazine, which blocks all GABAA receptor, before and after 30 nM THP^24. Current was also recorded in response to 2 s 10 mV steps in the holding potential, and current-voltage curves generated to the steady-state current. Because fast-inactivating conductances would not be excluded in a voltage ramp, stable steady-state current responses were used instead to construct the current-voltage (IV) curves. Input resistance (Rm) was calculated from the current response to voltage steps from −60 to −40 mV using Ohm's Law. The reversal potential was determined by the […] of the IV curve (−90 to −10 mV). The gabazine-sensitive slope conductance was assessed as the slope of the linear portion of outward current plot recorded before and after THP after subtraction of the gabazine-generated current (in the presence of L-655,708 to block α5-GABAA receptors). Only data with a stable baseline and pipet access resistance <10 MΩ were included in the analysis."}, "female C57BL6 mice": {"tested_on": "female C57BL6 mice", "assay": "Elevated plus maze (with or without restraint stress)", "type": "in vivo, mouse", "from_the_text": "Animal subjects. Prepubertal and pubertal female C57BL6 mice (3½-6 weeks old, +/+ and δ^−/−1) were housed in a reverse light:dark cycle (12:12). Both sets of mice were originally supplied by G. Homanics (Univ. of Pittsburgh), and were bred on site, with +/+ mice supplemented from Jackson Laboratories (Bar Harbor, Me.). Initially, age-matched+/+littermates of the δ^−/−were used as controls, but because they were indistinguishable from C57BL6, data from both groups were pooled. Genotyping of the tails verified that mice were homozygous δ^−/−. Some animals (+/+ or δ^−/−) were injected with finasteride (1,(5α)-androstene-4-aza-3-one-N-tert-butyl-17β-carboxaminde, Steraloids, 50 mg kg^, −1 intraperitoneally, 3 days) to block THP synthesis^2 or oil vehicle on a daily basis 1-1.5 h before dark onset, when THP levels increase, and tested 30 min. later. The onset of puberty was determined by vaginal opening, and pubertal mice tested on the day of first metestrus, identified by vaginal morphology and verification of first estrus the previous day. Mice with vaginal smears representative of diestrus were excluded from the study. Individual stages of puberty were not distinguished, and pre-pubertal mice were used before any visible signs of pubertal development, assessed by development of the peri-vaginal area. In some cases, pubertal mice were injected with replacement THP (3α-OH-5β-pregnan-20-one, 10 mg kg^−1, intraperitoneally in oil) for three days before testing. Procedures were in accordance with the SUNY Downstate Institutional Animal Care and Use Committee.\nRestraint stress. In order to test the effect stress-induced release of THP^6,46,47 on anxiety, mice were restrained in a clear Plexiglas tube-type holder (Harvard Apparatus) for 45 min. and tested 20 min. later on the elevated plus maze (see Supplementary Methods). Open arm time was evaluated for 5 min. on the elevated plus maze. A decrease in open arm time reflects an increase in anxiety^18. In all cases, the results from each mouse tested after restraint was expressed relative to the averaged results from the sham controls, which were identical to the stressed animals (age, genotype, sex, drug-injected), except that they were not subjected to restraint stress.\nElevated plus maze. Testing rodent behavior on the elevated plus maze is an established animal model of anxiety^31. The plus maze consists of four 8×35 cm arms at 90° angles, elevated 57 cm above the floor. Two arms are enclosed by 33 cm walls, and two arms have no walls (“open arms”). […] Each animal was initially acclimated to the room for 30 min-1 h before being placed in the center of the maze, and exploratory activity recorded for 5 min. […]"}}, "data": [{"compound": "CC(=O)[C@H]1CC[C@H]2[C@@H]3CC[C@H]4C[C@H](O)CC[C@]4(C)[C@H]3CC[C@]12C", "note": "[THP, 3α-OH-5α[β]-pregnan-20-one]", "values": [{"measurement": "reduction of outward tonic current", "setting": "[1]; 30 nM THP, pubertal mice, low internal Cl−", "value": "48±6", "unit": "%"}, {"measurement": "effect on outward tonic current", "setting": "[1]; before puberty", "value": "increased the outward tonic current"}, {"measurement": "effect on tonic GABAergic current, inward", "setting": "[1]; pubertal, cell loaded with Cl− to produce inward current", "value": "increased the tonic GABAergic current"}, {"measurement": "effect on outward tonic current", "setting": "[1]; δ−/− mouse after puberty", "value": "increased the outward tonic current"}, {"measurement": "decrease of open arm time", "setting": "female C57BL6 mice; 10 mg kg−1 intraperitoneally, acute, after onset of puberty", "value": "35±8", "unit": "%"}, {"measurement": "locomotor activity", "setting": "female C57BL6 mice; 10 mg kg−1 intraperitoneally, after onset of puberty", "value": "without changing locomotor activity"}, {"measurement": "anxiety response to stress after steroid replacement", "setting": "female C57BL6 mice; replacement THP 10 mg kg−1 i.p. for three days at puberty", "value": "did not exhibit an anxiety response to stress"}]}]}
